In patent US20260092085A1, “SYNTHETIC TRIPLEX PEPTIDE NUCLEIC ACID-BASED INHIBITORS FOR CANCER THERAPY” (University of Connecticut, priority 2022, published 2026):
{RR} = two arginine residues at the PNA terminus

Legend:
miR-155 = miR-155 gene expression in SUDHL-2 xenograft tumors; design: species or system NSG mice; conditions: SUDHL-2 xenograft after in vivo treatment
Experimental: Data normalized with average control U6 (n=4) and represented as mean±standard error mean. Unpaired t test was used for statistical analysis. Further statistical analysis was performed relative to Scr-γtcPNA-155. **p<0.01, ***p<0.001.
(§1) Further, we corroborated our results in the SUDHL-2 derived xenograft mouse model. We injected the SUDHL-2 cells in the right and left flank of mice. After 14-21 days, when the tumor volume reached 100-200 mm3, the mice were randomized into three treatment groups based on uniform tumor volume distribution in each group. […] (FIG. 27)

[1] = test system: U2932 subcutaneous tumors; assay: Tumor growth in U2932 derived xenograft model; type: in vivo, NSG mice; conditions: intra-tumoral injections days 0, 7, 14
Experimental: Mouse tumor xenograft: Female NSG mice (NOD.Cg-Prkdcscid Il2rgtm1Wjl/SzJ, strain 005557) weighing 20-23 g were procured from Jackson laboratories. 1×10^7 U2932 cells suspended in RPMI-1640 medium were injected subcutaneously in the right and left flank of 6-week-old NSG mice. The mice developed a small bump in 2 weeks. When the tumor volume reached 100-200 mm^3, the mice were randomly assigned to the treatment group (n=6 per group).
RNA and Protein extraction from tumor samples: The mice were injected intra-tumorally with 1 mg kg-1 dose of PNA-155, γtcPNA-155, γPNA-155, Scr-γtcPNA-155 or were untreated. The injections were repeated two additional times after 1 week each. The length, breadth, and depth of the tumors were measured daily using a vernier caliper. The mice were euthanized when the tumor volumes reached 2000 mm^3. The resected tumor sections were finely minced using a sterile blade and suspended in dissociation media (4 ml) comprising of RPMI-1640, 1.2 mg/ml dispase, and 0.5 mg/ml collagenase for 90 mins at 500 rpm at 37° C. The dissociated tumors were washed with buffer saline at 2500 rpm (4 mins) at 4° C. and then suspended in 0.25% trypsin for 4 mins at room temperature. RPMI 1640 media was added to the trypsinized tumor mass, and the cells were passed through a 70 um filter. The cells were centrifuged at 2500 rpm for 4 mins at 4° C. The cell pellet was then suspended in 1×RBC lysis buffer (Sigma) and incubated on ice for 10 mins. PBS was added to the cells and the cells were passed through a 40 um filter. The cells were centrifuged at 2500 rpm for 4 mins at 4° C. The cell pellet was resuspended in 0.5% BSA in PBS. The mouse cells were removed from the tumor cells using a mouse cell depletion kit (Miltenyi Biotec) according to the manufacturer's protocol. The enriched tumor cells from each tumor sample were divided into two fractions. RNA for gene expression analysis was extracted from one tumor fraction by the same procedure as mentioned earlier. The protein for western blot analysis was extracted from the second fraction using the method described above.
For the efficacy study, each mouse received three intra-tumoral injections of either γtcPNA-155, γPNA-155 or PNA-155 on days 0, 7, 14. We noticed that the control and scrambled treated tumors reached 2000 mm^3 much faster during our study, so we could not inject a third time in these mice. […] In contrast, as stated earlier, there was no effect on the control and scrambled PNA control on the tumor volume.

U2932 cells = assay: Annexin V-based apoptosis assay in U2932 cells; type: cell-based, human; conditions: 48 hours
Experimental: Quantification of apoptotic cells by flow cytometry after treating U2932 cells with PBS as a control and 500 nM Scr-γtcPNA-155, PNA-155, γPNA-155 and γtcPNA-155 for 48 hours. The apoptotic cells and necrotic were stained using Phycoerythrin (PE) Annexin V and 7-Amino-Actinomycin (7-AAD) respectively. The % apoptotic cells after treatment was compared to the PBS treated cells, by setting the same threshold. Bar graph of % apoptotic cells (n=3 technical triplicate), data represented as mean±standard error mean (SEM), *p<0.05, **p<0.01, ***p<0.001, unpaired two-tailed t-test was used for statistical analysis. Representative dot plots of Scr-γtcPNA-155 and γtcPNA-155 treated U2932 cells. The experiment was repeated three times and in triplicate. One out of three representative experiments are shown.
The apoptotic cells and necrotic were stained using Phycoerythrin (PE) Annexin V and 7-Amino-Actinomycin (7-AAD) respectively. The % apoptotic cells after treatment was compared to the PBS treated cells, by setting the same threshold. Bar graph of % apoptotic cells (n=3 technical triplicate), data represented as mean±standard error mean (SEM), **p<0.01, unpaired two-tailed t-test was used for statistical analysis. Representative dot plots of PBS treated and γtcPNA-155 treated U2932 cells. The experiment was repeated three times and in triplicate. One out of three representative experiments is shown.
Apoptosis Assay: 400,000 U2932 cells were seeded in a 12 well plate. The cells were treated with 500 nM PNA-155, γPNA-155, γtcPNA-155, Scr-γ tcPNA-155 or were PBS treated (control) for 48 hrs in an incubator (37° C., 5% CO2). The cells were washed with PBS twice. The cells were centrifuged at 2000 rpm for 4 mins at 4° C. The cell pellet was suspended in IX Annexin V binding buffer. The cells were then counted and 100 μL of cell suspension (containing 2.5×10^5 cells) was passed through the FACS tube. […] 400 μL of IX Annexin V binding buffer was added to the cells and the cells were then analyzed using LSR Fortessa™ X-20 Cell analyzer as indicated above. […]

SUDHL-2 tumors = assay: Tumor growth in SUDHL-2 derived xenograft; type: in vivo, NSG mice; conditions: SUDHL-2 xenograft, intratumoral, compared to Scr-γtcPNA-155 and PNA-155 control
Experimental: Data represented as mean±standard error mean (SEM). Scr-γtcPNA-155 (n=4), PNA-155 (n=5), γtcPNA-155 (n=5), *p<0.05, **p<0.01, ***p<0.001, ****p<0.0001. Multiple t-tests one per row was used for statistical analysis.
For SUDHL-2 xenografts, 1×10^7 SUDHL-2 cells suspended in RPMI-1640 medium were injected subcutaneously in the right and left flank of 6-week-old NSG mice. The mice developed a small bump in 2-3 weeks. When the tumor volume reached 100-200 mm^3, the mice were randomly allocated to the treatment group (n=5 per group).
as §1

Substance: PNA-155: conventional full-length regular PNA (23mer), RR-ACCCCTATCACGATTAGCATTAA-RR, SEQ ID NO: 1 (all peptide nucleic acid (PNA), 5' {RR}, 3' {RR}) [reference compound]
- miR-155 expression level in tumors (miR-155): significantly reduces miR-155 expression level
- tumor growth / tumor volume [1]: reduced the tumor growth

Substance: γtcPNA-155: serine gamma tail-clamp anti-miR-155 PNA, RR-TJJJJ-OOO-ACCCCTATCACGATTAGCATTAA-RR, SEQ ID NO: 3 (all peptide nucleic acid (PNA); serine gamma PNA, tail-clamp TJJJJ via linkers, Arg-Arg at both ends)
- apoptosis by Annexin-V FITC confocal imaging (U2932 cells; U2932, 500 nM): higher apoptosis
- apoptosis by annexin V flow cytometry (U2932 cells; U2932, 500 nM, versus PNA-155 and γPNA-155 treated group): increased apoptosis
- increase in apoptosis in comparison to control (U2932 cells; U2932, 10 uM): 4.5 fold
- tumor growth / tumor volume [1]: reduced the tumor growth
- tumor growth (SUDHL-2 tumors): reduced the tumor growth
